# PubChem BioAssay AID1996
# Settings: buffer; pH 7.4; 200.0 µM
row,SMILES,solubility kinetic
1,CC(C)Oc1ccc(Cc2cnc(=S)[nH]c2N)cc1,15.4 µg/mL
2,O=C(c1ccc2ccccc2c1)N1CCCCC1,> 35.9 µg/mL
3,COc1ccc(CN2CCC(C(=O)c3ccc(F)cc3)CC2)cc1,> 49.1 µg/mL
4,O=C1CSC(c2ccc([N+](=O)[O-])cc2)N1c1ccccc1F (stereo unspecified),> 47.7 µg/mL
5,CC(NC(=O)CSc1ncccc1C(=O)O)C1CC2CCC1C2 (stereo unspecified),> 50.2 µg/mL
6,O=C(NCCCc1ccccc1)c1ccc([N+](=O)[O-])cc1Cl,9.2 µg/mL
7,O=C(CSC1=NCCS1)c1ccc(Cl)cc1,31.2 µg/mL
8,O=C1OCc2ccc(NS(=O)(=O)c3ccc(C(F)(F)F)cc3)cc21,> 53.6 µg/mL
9,O=C1CN=C(c2ccccc2)c2ccccc2N1,27.2 µg/mL
10,Cc1ccc(Cl)c(Nc2ccccc2C(=O)[O-])c1Cl.[Na+],> 47.7 µg/mL
11,Cc1ccccc1Nc1nc(N)nc(CSc2nnc(C)n2C)n1,> 51.4 µg/mL
12,CCCCOc1ccc(C(=O)OCC(=O)c2c(N)n(C)c(=O)n(C)c2=O)cc1,4.4 µg/mL
13,CC1CCCN(C(=O)CN2C(=O)C(C)Oc3ccccc32)C1 (stereo unspecified),> 45.4 µg/mL
14,Cc1noc(C)c1C(=O)NC1=NCCS1,> 33.8 µg/mL
15,CCOC(=O)CNC(=O)Cc1ccc(OC)cc1,> 37.7 µg/mL
16,Cc1ccc(C(=O)CCC(=O)NCc2ccc(Cl)cc2)cc1,9.7 µg/mL
17,Cc1ccccc1CN(C)C1CCN(C)CC1,31.7 µg/mL
18,CC(C)OP(=O)(c1ccc(N(C)C)cc1)C(O)c1cccnc1 (stereo unspecified),> 50.2 µg/mL
19,O=C(Cn1cnc2ccccc2c1=O)NCc1cccs1,35.6 µg/mL
20,CCOc1cccc2cc(C(=O)N3CC(C)OC(C)C3)c(=O)oc12 (stereo unspecified),> 49.7 µg/mL
21,O=c1[nH]c2cc3c(cc2cc1CN(Cc1cccnc1)C(=S)NCc1ccco1)OCCO3,< 0.2 µg/mL

row,SMILES,solubility kinetic
1,CCOC(=O)C(c1ccccc1)C(Nc1ccc(F)cc1)c1ccccn1 (stereo unspecified),11.9 µg/mL
2,COc1ccc(COC(=O)CCc2c[nH]c3ccccc23)cc1F,7.7 µg/mL
3,O=C(NCc1ccccc1Cl)NCc1ccccc1Cl,1.1 µg/mL
4,N#Cc1cccc(C(=O)Nc2ccc(S(=O)(=O)Nc3nccs3)cc2)c1,> 57.7 µg/mL
5,CCOc1ccc2ccccc2c1C1NC(=O)N(C)C(C)=C1C(=O)OCCOC (stereo unspecified),1.9 µg/mL
6,COc1ccc(CC(=O)NCc2ccccc2)cc1OC,> 42.8 µg/mL
7,Cc1ccc(NC(=O)c2ccsc2)cc1NS(C)(=O)=O,> 46.6 µg/mL
8,O=C1N=C(N2CCCC2)S/C1=C\C=C\c1ccccc1,10.2 µg/mL
9,O=C(CSc1ncnc2nc[nH]c12)c1ccc([N+](=O)[O-])cc1,2.6 µg/mL
10,CCc1ccc(Nc2ccc3nonc3c2[N+](=O)[O-])cc1,< 0.2 µg/mL
11,O=S(=O)(Nc1ccccn1)c1ccc(Br)cc1,37.9 µg/mL
12,O=C(O)CCC(=O)N1CCC[C@H]1C(=O)O,> 32.3 µg/mL
13,O=C(Nc1ccc(Nc2ccccc2)cc1)c1cccc(F)c1,0.8 µg/mL
14,CC1=Nc2ccccc2/C1=C/c1c(O)n(C)c(=O)[nH]c1=O,> 42.5 µg/mL
15,S=C(NC1CCCCC1)N1CCc2[nH]c3ccccc3c2C1,1.3 µg/mL
16,O=C(Nc1cccc(/C=C/c2ccccn2)c1)c1cc(Cl)ccn1,2.1 µg/mL
17,Cc1ccc(NC(=O)CSc2cccc3cccnc23)c(C)c1,5.2 µg/mL
18,O=C(C(Cl)c1ccccc1)N1CCOCC1 (stereo unspecified),33.5 µg/mL
19,COC(=O)[C@H](CC(C)C)NC(=O)NCc1ccc(Cl)cc1,42.5 µg/mL
20,Cc1ccc(NC(=S)NCc2ccc3c(c2)cc(C)n3C)c(C)c1,0.6 µg/mL
21,COc1ccc(NC(=O)[C@@H]2CCCN2S(=O)(=O)c2ccccc2F)cc1S(=O)(=O)N1CCCCC1,37.1 µg/mL

row,SMILES,solubility kinetic
1,Cl.Clc1ccc(CN2CCNCC2)cc1,22.6 µg/mL
2,COC(=O)c1ccc(NC(=O)C[n+]2ccccc2)cc1.[Cl-],> 46 µg/mL
3,Cn1cccc1C(=O)C(=O)Nc1ccccc1C(F)(F)F,5 µg/mL
4,COc1cccc(OC)c1C(=O)OCC(=O)NCC(C)C,> 44.3 µg/mL
5,O=C(COC(=O)c1cc2ccccc2cc1O)Nc1ccccc1F,6.3 µg/mL
6,O=C(CNC(=O)c1ccc(Br)o1)NCC1COc2ccccc2O1 (stereo unspecified),> 59.3 µg/mL
7,Cc1ccc(NC(=O)CCC(=O)N2CCOCC2)nc1,> 41.6 µg/mL
8,COc1ccc(OC)c(C(=O)COC(=O)c2cccnc2Cl)c1,> 50.4 µg/mL
9,Cc1ccsc1CN(C)C(=O)c1ccc(Oc2ccccc2)cc1,3.3 µg/mL
10,NC(=O)C1CCCc2c1n(Cc1ccccc1)c1ccccc21 (stereo unspecified),22.3 µg/mL
11,CCOc1ccc(S(=O)(=O)N2CCN(c3ccccn3)CC2)cc1,1.6 µg/mL
12,Cc1cc(C(=O)NC2CCCCCC2)c2ccccc2n1,24.2 µg/mL
13,CN1CCOCCOc2ccccc2OCCOCC1,> 42.2 µg/mL
14,O=C1NCC(COc2ccc(Cl)cc2)O1 (stereo unspecified),> 34.1 µg/mL
15,S=C(NCc1cccnc1)Nc1ccc(Cl)cc1Cl,> 46.8 µg/mL
16,CC1CN=C(NCc2ccccc2Cl)S1 (stereo unspecified),> 36.1 µg/mL
17,O=C1c2ccccc2C(=O)N1CCn1ccnc1,> 36.2 µg/mL
18,O=S(=O)(NC1CC2CCC1C2)c1ccc(Cl)cc1 (stereo unspecified),38.4 µg/mL
19,CSc1ncccc1C(=O)Nc1cccc(S(=O)(=O)N2CCCC2)c1,> 56.6 µg/mL
